The values below come from paper PMC6918900, “Concentration-Dependent Activity of Hydromethylthionine on Cognitive Decline and Brain Atrophy in Mild to Moderate Alzheimer’s Disease” (Journal of Alzheimer's Disease, 2019).

The conditions of data set [1]: earlier Phase II study; cited from earlier work.
The next data set deals with electron transfer chain. Set-up: method as in PMID 17928358, PMID 22419586. Particulars: supplementary electron carrier in the electron transfer chain; cited from earlier work.
For the next data set, the system named is autophagy. Set-up: method as in PMID 26572258, PMID 22361619. Particulars: cited from earlier work.
Data set [2] concerns tangle filaments isolated from AD brain tissues. Set-up: method as in PMID 25759392, PMID 8855335. Particulars: at a similar molar ratio (tau:LMT 1 : 0.1); cited from earlier work.
For data set [3], the system named is tau transgenic mouse models. Particulars: dose of 9 mg/kg/day; cited from earlier work.
Data set [4] in a line: Estimated steady state brain concentration of LMT. Set-up: species or system human. Particulars: corresponding to 0.3–0.8 ng/ml in plasma.
For data set [5] the following is noted: elderly humans; cited from earlier work.
The conditions of data set [6]: mice; cited from earlier work.

Values joined by “and” are separate entries in the source; they are usually repeats but may differ in a detail not shown here. Equal values may be shown once. Read-outs that look alike come from different tables or passages of the source.

In the case of `CN(C)c1ccc2nc3ccc(=[N+](C)C)cc-3sc2c1` [MTC, methylthioninium chloride], the minimum effective dose in data set [1] is given as 138 mg/day.
With `CN(C)c1ccc2nc3ccc(=[N+](C)C)cc-3sc2c1` [MT moiety, methylthioninium], the “concentrations enhancing mitochondrial activity” value in the data set on electron transfer chain was 10 to 100 nM. Further, the “concentration range enhancing autophagy” value in the data set with autophagy was 10 to 20 nM. In addition, the “effect on proteolytic stability of tangle filaments” value in data set [2] was “reverse the proteolytic stability of tangle filaments”.
For orientation: half-life means the time in which the quantity being followed falls by half. With `CN(C)c1ccc2c(c1)Sc1cc(N(C)C)ccc1N2` [LMT, leuco-methylthioninium], in data set [3], the “effect on tau aggregation pathology and behavioral deficits” value is “reduces tau aggregation pathology and associated behavioral deficits”. For the same compound, the “estimated steady state concentration in the brain” value in data set [4] was 6–16 ng/ml and 0.021–0.056 μM. The half-life is 37 h in data set [5] and 4 h in data set [6].
